In the NIST ThermoML archive (doi:10.1016/j.fluid.2017.07.006):

Details: Liquid

CC(O)CO (centres undefined) [1,2-propanediol]
Details | mass density [kg/m3] | viscosity [mPa·s]
292.1 K, 101.33 kPa, Capillary tube (Ostwald / Ubbelohde) method | – | 60.61
293.1 K, 101.33 kPa, Capillary tube (Ostwald / Ubbelohde) method | – | 58.09
293.15 K, 101.33 kPa, Pycnometric method | 1035.5 | –
298.15 K, 98 kPa, Buoyancy - hydrostatic balance | 1032.56 | –
298.15 K, 98 kPa, Falling or rolling sphere viscometry | – | 43.69
298.15 K, 101.33 kPa, Capillary tube (Ostwald / Ubbelohde) method | – | 43.69
298.15 K, 101.33 kPa, Pycnometric method | 1032.56 | –
298.15 K, 49030 kPa, Buoyancy - hydrostatic balance | 1055.29 | –
298.15 K, 49030 kPa, Falling or rolling sphere viscometry | – | 64.02
298.15 K, 98060 kPa, Buoyancy - hydrostatic balance | 1072.94 | –
298.15 K, 98060 kPa, Falling or rolling sphere viscometry | – | 94.28
298.15 K, 147100 kPa, Buoyancy - hydrostatic balance | 1088.48 | –
298.15 K, 147100 kPa, Falling or rolling sphere viscometry | – | 134.1
298.15 K, 196130 kPa, Buoyancy - hydrostatic balance | 1104.32 | –
298.15 K, 196130 kPa, Falling or rolling sphere viscometry | – | 187.2
298.15 K, 245160 kPa, Buoyancy - hydrostatic balance | 1115.28 | –
298.15 K, 245160 kPa, Falling or rolling sphere viscometry | – | 260.7
303.15 K, 98 kPa, Buoyancy - hydrostatic balance | 1028.87 | –
303.15 K, 98 kPa, Falling or rolling sphere viscometry | – | 32.35
303.15 K, 49030 kPa, Buoyancy - hydrostatic balance | 1052.03 | –
303.15 K, 49030 kPa, Falling or rolling sphere viscometry | – | 48.25
303.15 K, 98060 kPa, Buoyancy - hydrostatic balance | 1070.79 | –
303.15 K, 98060 kPa, Falling or rolling sphere viscometry | – | 69.46
303.15 K, 147100 kPa, Buoyancy - hydrostatic balance | 1086.25 | –
303.15 K, 147100 kPa, Falling or rolling sphere viscometry | – | 97.33
303.15 K, 196130 kPa, Buoyancy - hydrostatic balance | 1101.4 | –
303.15 K, 196130 kPa, Falling or rolling sphere viscometry | – | 134.7
303.15 K, 245160 kPa, Buoyancy - hydrostatic balance | 1112.65 | –
303.15 K, 245160 kPa, Falling or rolling sphere viscometry | – | 183.3
303.4 K, 101.33 kPa, Capillary tube (Ostwald / Ubbelohde) method | – | 31.54
312.98 K, 98 kPa, Buoyancy - hydrostatic balance | 1022.16 | –
312.98 K, 98 kPa, Falling or rolling sphere viscometry | – | 19.45
313 K, 49030 kPa, Buoyancy - hydrostatic balance | 1046.22 | –
313 K, 49030 kPa, Falling or rolling sphere viscometry | – | 28.34
313.03 K, 147100 kPa, Buoyancy - hydrostatic balance | 1081.67 | –
313.03 K, 147100 kPa, Falling or rolling sphere viscometry | – | 54.68
313.03 K, 245160 kPa, Buoyancy - hydrostatic balance | 1107.51 | –
313.03 K, 245160 kPa, Falling or rolling sphere viscometry | – | 98.04
313.04 K, 196130 kPa, Buoyancy - hydrostatic balance | 1095.69 | –
313.04 K, 196130 kPa, Falling or rolling sphere viscometry | – | 73.88
313.05 K, 98060 kPa, Buoyancy - hydrostatic balance | 1065.24 | –
313.05 K, 98060 kPa, Falling or rolling sphere viscometry | – | 39.87
313.15 K, 101.33 kPa, Pycnometric method | 1021.9 | –
313.9 K, 101.33 kPa, Capillary tube (Ostwald / Ubbelohde) method | – | 19.37
316 K, 101.33 kPa, Capillary tube (Ostwald / Ubbelohde) method | – | 17.04
332.1 K, 101.33 kPa, Capillary tube (Ostwald / Ubbelohde) method | – | 8.76
333.15 K, 101.33 kPa, Pycnometric method | 1006.3 | –
335.76 K, 98060 kPa, Buoyancy - hydrostatic balance | 1050.34 | –
335.76 K, 98060 kPa, Falling or rolling sphere viscometry | – | 14.23
335.78 K, 98 kPa, Buoyancy - hydrostatic balance | 1005.31 | –
335.78 K, 98 kPa, Falling or rolling sphere viscometry | – | 7.524
335.78 K, 147100 kPa, Buoyancy - hydrostatic balance | 1068.19 | –
335.78 K, 147100 kPa, Falling or rolling sphere viscometry | – | 18.86
335.8 K, 49030 kPa, Buoyancy - hydrostatic balance | 1029.3 | –
335.8 K, 49030 kPa, Falling or rolling sphere viscometry | – | 10.59
335.8 K, 196130 kPa, Buoyancy - hydrostatic balance | 1082.92 | –
335.8 K, 196130 kPa, Falling or rolling sphere viscometry | – | 24.61
336.01 K, 245160 kPa, Buoyancy - hydrostatic balance | 1095.8 | –
336.01 K, 245160 kPa, Falling or rolling sphere viscometry | – | 30.53
353.15 K, 101.33 kPa, Pycnometric method | 990.28 | –
353.4 K, 101.33 kPa, Capillary tube (Ostwald / Ubbelohde) method | – | 4.29
353.6 K, 101.33 kPa, Capillary tube (Ostwald / Ubbelohde) method | – | 4.18
364.39 K, 98 kPa, Buoyancy - hydrostatic balance | 981.63 | –
364.39 K, 98 kPa, Falling or rolling sphere viscometry | – | 3.034
364.66 K, 49030 kPa, Buoyancy - hydrostatic balance | 1007.36 | –
364.66 K, 49030 kPa, Falling or rolling sphere viscometry | – | 4.074
364.83 K, 98060 kPa, Buoyancy - hydrostatic balance | 1031.15 | –
364.83 K, 98060 kPa, Falling or rolling sphere viscometry | – | 5.292
364.87 K, 147100 kPa, Buoyancy - hydrostatic balance | 1051.61 | –
364.87 K, 147100 kPa, Falling or rolling sphere viscometry | – | 6.718
364.99 K, 245160 kPa, Buoyancy - hydrostatic balance | 1081.56 | –
364.99 K, 245160 kPa, Falling or rolling sphere viscometry | – | 10.31
365 K, 196130 kPa, Buoyancy - hydrostatic balance | 1067.32 | –
365 K, 196130 kPa, Falling or rolling sphere viscometry | – | 8.372
365.15 K, 101.33 kPa, Pycnometric method | 978.97 | –
368.15 K, 101.33 kPa, Pycnometric method | 977.28 | –
388.6 K, 101.33 kPa, Capillary tube (Ostwald / Ubbelohde) method | – | 1.767
389.3 K, 101.33 kPa, Capillary tube (Ostwald / Ubbelohde) method | – | 1.7
394.95 K, 98 kPa, Buoyancy - hydrostatic balance | 953.22 | –
394.95 K, 98 kPa, Falling or rolling sphere viscometry | – | 1.504
395.11 K, 49030 kPa, Buoyancy - hydrostatic balance | 982.98 | –
395.11 K, 49030 kPa, Falling or rolling sphere viscometry | – | 1.954
395.17 K, 98060 kPa, Buoyancy - hydrostatic balance | 1010.62 | –
395.17 K, 98060 kPa, Falling or rolling sphere viscometry | – | 2.451
395.38 K, 147100 kPa, Buoyancy - hydrostatic balance | 1033.92 | –
395.38 K, 147100 kPa, Falling or rolling sphere viscometry | – | 3.011
395.57 K, 196130 kPa, Buoyancy - hydrostatic balance | 1051.9 | –
395.57 K, 196130 kPa, Falling or rolling sphere viscometry | – | 3.659
395.68 K, 245160 kPa, Buoyancy - hydrostatic balance | 1067.12 | –
395.68 K, 245160 kPa, Falling or rolling sphere viscometry | – | 4.374
399.15 K, 101.33 kPa, Pycnometric method | 949.76 | –
423.3 K, 101.33 kPa, Capillary tube (Ostwald / Ubbelohde) method | – | 0.926
423.51 K, 98 kPa, Buoyancy - hydrostatic balance | 926.76 | –
423.51 K, 98 kPa, Falling or rolling sphere viscometry | – | 0.925
423.62 K, 49030 kPa, Buoyancy - hydrostatic balance | 959.18 | –
423.62 K, 49030 kPa, Falling or rolling sphere viscometry | – | 1.239
423.65 K, 101.33 kPa, Pycnometric method | 925.92 | –
423.9 K, 98060 kPa, Buoyancy - hydrostatic balance | 989.94 | –
423.9 K, 98060 kPa, Falling or rolling sphere viscometry | – | 1.533
423.97 K, 147100 kPa, Buoyancy - hydrostatic balance | 1016.34 | –
423.97 K, 147100 kPa, Falling or rolling sphere viscometry | – | 1.89
424.05 K, 196130 kPa, Buoyancy - hydrostatic balance | 1038.38 | –
424.05 K, 196130 kPa, Falling or rolling sphere viscometry | – | 2.244
424.3 K, 245160 kPa, Buoyancy - hydrostatic balance | 1054.25 | –
424.3 K, 245160 kPa, Falling or rolling sphere viscometry | – | 2.608
450.15 K, 101.33 kPa, Pycnometric method | 896.89 | –
452.07 K, 245160 kPa, Buoyancy - hydrostatic balance | 1042.31 | –
452.07 K, 245160 kPa, Falling or rolling sphere viscometry | – | 1.656
452.1 K, 49030 kPa, Buoyancy - hydrostatic balance | 934.51 | –
452.1 K, 49030 kPa, Falling or rolling sphere viscometry | – | 0.81
452.14 K, 98060 kPa, Buoyancy - hydrostatic balance | 965.53 | –
452.14 K, 98060 kPa, Falling or rolling sphere viscometry | – | 0.995
452.17 K, 98 kPa, Buoyancy - hydrostatic balance | 900.36 | –
452.17 K, 98 kPa, Falling or rolling sphere viscometry | – | 0.604
452.18 K, 196130 kPa, Buoyancy - hydrostatic balance | 1022.83 | –
452.18 K, 196130 kPa, Falling or rolling sphere viscometry | – | 1.425
452.19 K, 147100 kPa, Buoyancy - hydrostatic balance | 996.01 | –
452.19 K, 147100 kPa, Falling or rolling sphere viscometry | – | 1.212
458.9 K, 101.33 kPa, Capillary tube (Ostwald / Ubbelohde) method | – | 0.533
